In assay [1] the target is purified human plasma kallikrein (Homo sapiens (Human), UniProt P03952). Kind of assay: Plasma kallikrein enzyme inhibition assay (chromogenic substrate S-2302). In kind it is biochemical.
In assay [2] the target is purified human Factor XIa (Homo sapiens (Human), UniProt P03951). Kind of assay: Factor XIa enzyme inhibition assay (chromogenic substrate S-2366).
Setting [3] is: measured at 25° C. (no asterisk).
Setting [4] is: read-out: Factor XIa Ki, measured at 25° C.

The structures appear in SMILES notation. Counter-ions that a name gives are not always drawn. Like-named read-outs stand apart in the source and are kept apart here.

The record followed here is patent publication US9738655B2, “Tetrahydroisoquinolines containing substituted azoles as factor XIa inhibitors” (BRISTOL-MYERS SQUIBB COMPANY, priority 2013, dated 2017).

Chain of purified human Factor XIa (P03951 388-625): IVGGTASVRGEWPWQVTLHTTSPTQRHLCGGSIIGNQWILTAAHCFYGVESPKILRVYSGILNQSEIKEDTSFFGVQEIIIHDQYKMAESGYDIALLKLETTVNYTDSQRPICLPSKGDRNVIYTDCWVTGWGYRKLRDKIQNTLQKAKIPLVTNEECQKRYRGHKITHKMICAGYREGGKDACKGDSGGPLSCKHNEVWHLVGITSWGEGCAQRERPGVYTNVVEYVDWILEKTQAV
Chain of purified human Factor XIa (P03951 19-387 partner): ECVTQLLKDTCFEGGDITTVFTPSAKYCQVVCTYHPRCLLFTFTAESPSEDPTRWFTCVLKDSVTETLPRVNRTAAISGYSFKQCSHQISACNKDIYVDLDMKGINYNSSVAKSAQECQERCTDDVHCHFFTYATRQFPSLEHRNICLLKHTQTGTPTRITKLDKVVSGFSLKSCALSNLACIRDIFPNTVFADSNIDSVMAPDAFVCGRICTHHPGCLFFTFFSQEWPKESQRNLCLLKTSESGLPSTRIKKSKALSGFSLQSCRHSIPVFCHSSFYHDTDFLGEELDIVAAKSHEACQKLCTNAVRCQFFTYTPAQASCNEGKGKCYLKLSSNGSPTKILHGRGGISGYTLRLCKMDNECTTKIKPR
Chain of purified human plasma kallikrein (P03952 391-638): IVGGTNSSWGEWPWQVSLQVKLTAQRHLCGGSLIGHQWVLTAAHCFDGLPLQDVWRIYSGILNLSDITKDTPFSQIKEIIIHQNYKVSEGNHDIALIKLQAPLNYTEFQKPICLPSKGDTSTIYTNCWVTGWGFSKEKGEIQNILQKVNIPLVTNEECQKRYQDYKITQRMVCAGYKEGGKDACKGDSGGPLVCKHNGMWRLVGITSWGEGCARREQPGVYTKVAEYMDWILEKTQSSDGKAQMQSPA
Chain of purified human plasma kallikrein (P03952 20-390 partner): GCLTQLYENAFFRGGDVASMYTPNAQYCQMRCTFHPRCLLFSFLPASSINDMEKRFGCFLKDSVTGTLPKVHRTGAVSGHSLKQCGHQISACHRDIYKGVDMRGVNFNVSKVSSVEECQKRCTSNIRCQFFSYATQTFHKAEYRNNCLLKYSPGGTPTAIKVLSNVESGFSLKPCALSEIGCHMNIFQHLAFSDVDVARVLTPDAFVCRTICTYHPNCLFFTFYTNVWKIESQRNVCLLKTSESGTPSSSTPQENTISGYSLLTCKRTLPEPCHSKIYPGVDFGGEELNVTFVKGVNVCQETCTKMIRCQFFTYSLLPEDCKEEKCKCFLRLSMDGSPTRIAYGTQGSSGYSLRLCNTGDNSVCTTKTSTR

Take `CN(C)C1CCN(c2cccc3c2CCN(C(=O)c2cnn(-c4cccc(Cl)c4F)c2)C3C(=O)Nc2ccc(OC(F)F)cc2)CC1` (stereo not drawn) [Example 96, 2-(1-(3-chloro-2-fluorophenyl)-1H-pyrazole-4-carbonyl)-N-(4-(difluoromethoxy)phenyl)-5-(4-(dimethylamino)piperidin-1-yl)-1,2,3,4-tetrahydroisoquinoline-1-carboxamide, TFA salt]: the Ki (usually the equilibrium dissociation constant of an inhibitor or competing ligand from its target) in assay [1] (setting [3]) is 34 nM; in assay [2] (setting [4]), 20.3 nM.
For `COc1ccc(NC(=O)C2c3cccc(N4CCC(N(C)C)CC4)c3CCN2C(=O)c2cnn(-c3cccc(Cl)c3F)c2)cc1` (stereo not drawn) [Example 97, 2-(1-(3-chloro-2-fluorophenyl)-1H-pyrazole-4-carbonyl)-5-(4-(dimethylamino)piperidin-1-yl)-N-(4-methoxyphenyl)-1,2,3,4-tetrahydroisoquinoline-1-carboxamide, TFA salt] the same measures were 21.7 nM and 9.13 nM.
On to `Cc1nc(-c2ccc(NC(=O)C3c4cccc(N5CCC(N(C)C)CC5)c4CCN3C(=O)c3cn(-c4cccc(Cl)c4F)nn3)cc2)no1` (stereo not drawn) [Example 98, 2-(1-(3-Chloro-2-fluorophenyl)-1H-1,2,3-triazole-4-carbonyl)-5-(4-(dimethylamino)piperidin-1-yl)-N-(4-(5-methyl-1,2,4-oxadiazol-3-yl)phenyl)-1,2,3,4-tetrahydroisoquinoline-1-carboxamide, bis-TFA salt], for which the Ki in assay [1] (setting [3]) was 5.2 nM; in assay [2] (setting [4]) it was 6.69 nM.
Consider `CN(C)C1CCN(c2cccc3c2CCN(C(=O)c2cn(-c4cccc(Cl)c4F)nn2)C3C(=O)Nc2ccc(C(N)=O)cc2)CC1` (stereo not drawn) [Example 99, N-(4-Carbamoylphenyl)-2-(1-(3-chloro-2-fluorophenyl)-1H-1,2,3-triazole-4-carbonyl)-5-(4-(dimethylamino)piperidin-1-yl)-1,2,3,4-tetrahydroisoquinoline-1-carboxamide, bis-TFA salt], for which the figures for the Ki in assay [1] (setting [3]) and in assay [2] (setting [4]) were 2.74 nM and less than 5 nM, respectively.
In the same order, the values of `CN(C)C1CCN(c2cccc3c2CCN(C(=O)c2cn(-c4cccc(Cl)c4F)nn2)[C@H]3C(=O)Nc2ccc(C(N)=O)cc2)CC1` [Example 100, (R)-N-(4-Carbamoylphenyl)-2-(1-(3-chloro-2-fluorophenyl)-1H-1,2,3-triazole-4-carbonyl)-5-(4-(dimethylamino)piperidin-1-yl)-1,2,3,4-tetrahydroisoquinoline-1-carboxamide, bis-TFA salt] are 494 nM and 289 nM.
For `CN(C)C1CCN(c2cccc3c2CCN(C(=O)c2cn(-c4cccc(Cl)c4F)nn2)[C@@H]3C(=O)Nc2ccc(C(N)=O)cc2)CC1` [Example 101, (S)-N-(4-Carbamoylphenyl)-2-(1-(3-chloro-2-fluorophenyl)-1H-1,2,3-triazole-4-carbonyl)-5-(4-(dimethylamino)piperidin-1-yl)-1,2,3,4-tetrahydroisoquinoline-1-carboxamide, bis-TFA salt] the same measures were 1.75 nM and less than 5 nM.
In the same order, the values of `CN(C)C1CCN(c2cccc3c2CCN(C(=O)c2cn(-c4cccc(Cl)c4F)nn2)C3C(=O)Nc2ccc(-c3cn[nH]c3)cc2)CC1` (stereo not drawn) [Example 102, N-(4-(1H-Pyrazol-4-yl)phenyl)-2-(1-(3-chloro-2-fluorophenyl)-1H-1,2,3-triazole-4-carbonyl)-5-(4-(dimethylamino)piperidin-1-yl)-1,2,3,4-tetrahydroisoquinoline-1-carboxamide, bis-TFA salt] are 1.39 nM and less than 5 nM.
As to `CN(C)C1CCN(c2cccc3c2CCN(C(=O)c2cn(-c4cccc(Cl)c4F)nn2)[C@H]3C(=O)Nc2ccc(-c3cn[nH]c3)cc2)CC1` [Example 103, (R)-N-(4-(1H-Pyrazol-4-yl)phenyl)-2-(1-(3-chloro-2-fluorophenyl)-1H-1,2,3-triazole-4-carbonyl)-5-(4-(dimethylamino)piperidin-1-yl)-1,2,3,4-tetrahydroisoquinoline-1-carboxamide, bis-TFA salt], the Ki in assay [1] (setting [3]) is 34 nM; in assay [2] (setting [4]), 17.9 nM.
With `CN(C)C1CCN(c2cccc3c2CCN(C(=O)c2cn(-c4cccc(Cl)c4F)nn2)[C@@H]3C(=O)Nc2ccc(-c3cn[nH]c3)cc2)CC1` [Example 104, (S)-N-(4-(1H-Pyrazol-4-yl)phenyl)-2-(1-(3-chloro-2-fluorophenyl)-1H-1,2,3-triazole-4-carbonyl)-5-(4-(dimethylamino)piperidin-1-yl)-1,2,3,4-tetrahydroisoquinoline-1-carboxamide, bis-TFA salt], the Ki in assay [1] (setting [3]) was 0.96 nM; in assay [2] (setting [4]) it was less than 5 nM.
`CN(C)C1CCN(c2cccc3c2CCN(C(=O)c2cn(-c4cccc(Cl)c4F)nn2)C3C(=O)Nc2ccc(-c3nnn[nH]3)cc2)CC1` (stereo not drawn) [Example 105, N-(4-(1H-Tetrazol-5-yl)phenyl)-2-(1-(3-chloro-2-fluorophenyl)-1H-1,2,3-triazole-4-carbonyl)-5-(4-(dimethylamino)piperidin-1-yl)-1,2,3,4-tetrahydroisoquinoline-1-carboxamide, bis-TFA salt]: the Ki was 1.69 nM in assay [1] (setting [3]) and less than 5 nM in assay [2] (setting [4]).
In the same order, the values of `CN1CCC2(CCN(c3cccc4c3CCN(C(=O)c3cn(-c5cccc(Cl)c5F)nn3)C4C(=O)Nc3ccc(C(=O)O)cc3)CC2)C1=O` (stereo not drawn) [Example 106, 4-(2-(1-(3-Chloro-2-fluorophenyl)-1H-1,2,3-triazole-4-carbonyl)-5-(2-methyl-1-oxo-2,8-diazaspiro[4.5]decan-8-yl)-1,2,3,4-tetrahydroisoquinoline-1-carboxamido)benzoic acid, TFA salt] are 7.58 nM and less than 5 nM.
In the same order, the values of `CN1CCC2(CCN(c3cccc4c3CCN(C(=O)c3cnn(-c5cccc(Cl)c5F)c3)C4C(=O)Nc3ccc(C(=O)O)cc3)CC2)C1=O` (stereo not drawn) [Example 107, 4-(2-(1-(3-Chloro-2-fluorophenyl)-1H-pyrazole-4-carbonyl)-5-(2-methyl-1-oxo-2,8-diazaspiro[4.5]decan-8-yl)-1,2,3,4-tetrahydroisoquinoline-1-carboxamido)benzoic acid, TFA salt] are 12.5 nM and less than 5 nM.
For `N#Cc1cccc2c1CCN(C(=O)c1cn(-c3cccc(Cl)c3F)nn1)C2C(=O)Nc1ccc(C(=O)O)cc1` (stereo not drawn) [Example 108, 4-(2-(1-(3-Chloro-2-fluorophenyl)-1H-1,2,3-triazole-4-carbonyl)-5-cyano-1,2,3,4-tetrahydroisoquinoline-1-carboxamido)benzoic acid] the same measures were 50 nM and 48.8 nM.
Turning to `NCc1cccc2c1CCN(C(=O)c1cn(-c3cccc(Cl)c3F)nn1)C2C(=O)Nc1ccc(C(=O)O)cc1` (stereo not drawn) [Example 109, 4-(5-(Aminomethyl)-2-(1-(3-chloro-2-fluorophenyl)-1H-1,2,3-triazole-4-carbonyl)-1,2,3,4-tetrahydroisoquinoline-1-carboxamido)benzoic acid, TFA salt], the Ki worked out at 2.29 nM in assay [1] (setting [3]) and 14.5 nM in assay [2] (setting [4]).
In the same order, the values of `O=C(O)c1ccc(NC(=O)C2c3cccc(Br)c3CCN2C(=O)c2cn(-c3cccc(Cl)c3F)nn2)cc1` (stereo not drawn) [Example 110, 4-(5-Bromo-2-(1-(3-chloro-2-fluorophenyl)-1H-1,2,3-triazole-4-carbonyl)-1,2,3,4-tetrahydroisoquinoline-1-carboxamido)benzoic acid] are 23 nM and 72.7 nM.
In the case of `O=C(O)c1ccc(NC(=O)C2c3cccc(OC4CCNCC4)c3CCN2C(=O)c2cn(-c3cccc(Cl)c3F)nn2)cc1` (stereo not drawn) [Example 112, 4-(2-(1-(3-Chloro-2-fluorophenyl)-1H-1,2,3-triazole-4-carbonyl)-5-(piperidin-4-yloxy)-1,2,3,4-tetrahydroisoquinoline-1-carboxamido)benzoic acid, TFA salt], the figures for the Ki in assay [1] (setting [3]) and in assay [2] (setting [4]) were 3.16 nM and less than 5 nM, respectively.
`COCCOc1cccc2c1CCN(C(=O)c1cn(-c3cccc(Cl)c3F)nn1)C2C(=O)Nc1ccc(C(=O)O)cc1` (stereo not drawn) [Example 113, 4-(2-(1-(3-Chloro-2-fluorophenyl)-1H-1,2,3-triazole-4-carbonyl)-5-(2-methoxyethoxy)-1,2,3,4-tetrahydroisoquinoline-1-carboxamido)benzoic acid]: the values for the Ki in assay [1] (setting [3]) and in assay [2] were 11.9 nM and less than 5 nM, respectively.
Consider `CCOC(=O)Cc1ccc(NC(=O)C2c3cccc(-c4ccc(C(=O)NC)nc4)c3CCN2C(=O)c2cn(-c3cccc(Cl)c3F)nn2)cc1` (stereo not drawn) [Example 116, Ethyl 2-(4-(2-(1-(3-Chloro-2-fluorophenyl)-1H-1,2,3-triazole-4-carbonyl)-5-(6-(methylcarbamoyl)pyridin-3-yl)-1,2,3,4-tetrahydroisoquinoline-1-carboxamido)phenyl)acetate, TFA salt], for which the Ki in assay [1] (setting [3]) is 128 nM; in assay [2] (setting [4]), 13.6 nM.
In the same order, the values of `CNC(=O)c1ccc(-c2cccc3c2CCN(C(=O)c2cn(-c4cccc(Cl)c4F)nn2)C3C(=O)Nc2ccc(CC(=O)O)cc2)cn1` (stereo not drawn) [Example 117, 2-(4-(2-(1-(3-Chloro-2-fluorophenyl)-1H-1,2,3-triazole-4-carbonyl)-5-(6-(methylcarbamoyl)pyridin-3-yl)-1,2,3,4-tetrahydroisoquinoline-1-carboxamido)phenyl)acetic acid, TFA salt] are 16.3 nM and less than 5 nM.
On to `COC1CCN(c2cccc3c2CCN(C(=O)c2cn(-c4cccc(Cl)c4F)nn2)C3C(=O)Nc2ccccc2)CC1` (stereo not drawn) [Example 118, 2-(1-(3-Chloro-2-fluorophenyl)-1H-1,2,3-triazole-4-carbonyl)-5-(4-methoxypiperidin-1-yl)-N-phenyl-1,2,3,4-tetrahydroisoquinoline-1-carboxamide, TFA salt], for which the Ki is 250 nM in assay [1] (measured at 37° C. (*)) and 38 nM in assay [2] (setting [4]).
In the same order, the values of `O=C(Nc1ccccc1)C1c2cccc(Br)c2CCN1C(=O)c1cn(-c2cccc(Cl)c2F)nn1` (stereo not drawn) [Example 119, 5-Bromo-2-(1-(3-chloro-2-fluorophenyl)-1H-1,2,3-triazole-4-carbonyl)-N-phenyl-1,2,3,4-tetrahydroisoquinoline-1-carboxamide] are 1100 nM and 4440 nM.
